In patent publication US10112929B2, “Lactams as inhibitors of rock” (BRISTOL-MYERS SQUIBB COMPANY, priority 2015, dated 2018):

target: ROCK2 (Homo sapiens (Human), UniProt O75116); experiment: biochemical
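Note: rho kinase enzyme reaction halted with EDTA, phospho- and non-phospho peptide separated for read-out, kinase activity inhibition derived across a dose-response series, DMSO under 2%.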

ROCK2, sequence (O75116 whole entry, species assumed): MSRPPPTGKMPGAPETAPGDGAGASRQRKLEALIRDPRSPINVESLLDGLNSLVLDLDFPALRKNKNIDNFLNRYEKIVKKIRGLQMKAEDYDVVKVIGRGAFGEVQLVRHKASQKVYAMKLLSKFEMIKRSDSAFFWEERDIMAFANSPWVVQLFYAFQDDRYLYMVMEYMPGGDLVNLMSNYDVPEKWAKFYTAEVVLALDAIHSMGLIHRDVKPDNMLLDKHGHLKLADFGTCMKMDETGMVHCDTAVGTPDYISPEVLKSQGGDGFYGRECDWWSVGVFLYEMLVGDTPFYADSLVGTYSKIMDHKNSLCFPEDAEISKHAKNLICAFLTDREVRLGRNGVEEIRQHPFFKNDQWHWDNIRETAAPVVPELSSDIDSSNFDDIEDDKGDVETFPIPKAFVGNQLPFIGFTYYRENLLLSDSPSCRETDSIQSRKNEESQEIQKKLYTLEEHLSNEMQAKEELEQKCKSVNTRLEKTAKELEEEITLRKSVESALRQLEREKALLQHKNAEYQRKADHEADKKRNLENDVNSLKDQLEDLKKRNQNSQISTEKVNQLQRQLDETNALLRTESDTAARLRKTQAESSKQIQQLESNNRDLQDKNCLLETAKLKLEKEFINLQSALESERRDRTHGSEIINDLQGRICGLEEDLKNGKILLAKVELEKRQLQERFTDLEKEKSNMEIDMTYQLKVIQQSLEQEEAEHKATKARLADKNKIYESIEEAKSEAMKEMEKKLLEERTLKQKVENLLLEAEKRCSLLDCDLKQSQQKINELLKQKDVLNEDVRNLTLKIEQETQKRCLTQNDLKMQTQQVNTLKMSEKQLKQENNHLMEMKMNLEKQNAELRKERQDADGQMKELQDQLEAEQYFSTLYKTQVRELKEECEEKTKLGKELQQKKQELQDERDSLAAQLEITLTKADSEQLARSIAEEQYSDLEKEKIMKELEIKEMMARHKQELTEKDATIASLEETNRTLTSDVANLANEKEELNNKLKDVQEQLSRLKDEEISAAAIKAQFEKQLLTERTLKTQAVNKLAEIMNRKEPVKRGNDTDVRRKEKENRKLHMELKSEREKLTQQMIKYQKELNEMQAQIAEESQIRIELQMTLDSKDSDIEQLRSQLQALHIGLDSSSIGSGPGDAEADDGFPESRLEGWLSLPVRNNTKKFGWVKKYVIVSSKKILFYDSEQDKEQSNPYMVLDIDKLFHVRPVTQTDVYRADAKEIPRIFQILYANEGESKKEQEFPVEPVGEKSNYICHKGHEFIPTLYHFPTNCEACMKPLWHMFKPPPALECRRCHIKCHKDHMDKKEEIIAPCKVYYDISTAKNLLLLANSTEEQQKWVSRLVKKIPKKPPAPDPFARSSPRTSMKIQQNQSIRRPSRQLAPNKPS

Row | Structure (SMILES) | IC50
1 | COc1cccc(N[C@@H]2CCN(c3ccc(-c4cn[nH]c4)cc3)C2=O)c1 [Example 383, (R)-1-(4-(1H-Pyrazol-4-yl)phenyl)-3-((3-methoxyphenyl)amino)pyrrolidin-2-one] | < 0.01 µM
2 | COCc1cc(N2CCC(Nc3cc(F)cc(OC)c3)C2=O)ccc1-c1cn[nH]c1 (single isomer, unassigned) [Example 186, 3-((3-fluoro-5-methoxyphenyl)amino)-1-(3-(methoxymethyl)-4-(1H-pyrazol-4-yl)phenyl)pyrrolidin-2-one] | 0.01 to 0.1 µM
3 | COc1cccc(OC2CCN(c3ccc(-c4ccc5[nH]ncc5c4)c(OC)n3)C2=O)c1 (single isomer, unassigned) [Example 123, 1-(5-(1H-indazol-5-yl)-6-methoxypyridin-2-yl)-3-(3-methoxyphenoxy)pyrrolidin-2-one] | 0.1 to 2.2 µM
4 | COc1nc(N2CCC(Nc3ccc4c(c3)OCCO4)C2=O)ccc1-c1cn[nH]c1 (racemic) [Example 256, 3-((2,3-dihydrobenzo[b][l,4]dioxin-6-yl)amino)-1-(6-methoxy-5-(1H-pyrazol-4-yl)pyridin-2-yl)pyrrolidin-2-one] | 0.01 to 0.1 µM
5 | COc1cc(F)cc(NC2CCN(c3ccc(-c4cn[nH]c4)c(F)c3F)C2=O)c1 (single isomer, unassigned) [Example 309, 1-(2,3-difluoro-4-(1H-pyrazol-4-yl)phenyl)-3-((3-fluoro-5-methoxyphenyl)amino)pyrrolidin-2-one] | 0.01 to 0.1 µM
6 | COc1cccc(NC2CCN(c3ncc(-c4cn[nH]c4)cc3F)C2=O)c1 (single isomer, unassigned) [Example 357, 1-(3-fluoro-5-(1H-pyrazol-4-yl)pyridin-2-yl)-3-((3-methoxyphenyl)amino) pyrrolidin-2-one] | 0.1 to 2.2 µM
7 | COc1c(F)cccc1NC1CCN(c2ccc(-c3cn[nH]c3)c(OC(F)F)c2)C1=O (single isomer, unassigned) [Example 32, 1-(3-(difluoromethoxy)-4-(1H-pyrazol-4-yl)phenyl)-3-((3-fluoro-2-methoxyphenyl)amino)pyrrolidin-2-one] | 0.1 to 2.2 µM
8 | COc1cc(F)cc(NC2CCN(c3ccc(-c4cn[nH]c4)c(C)n3)C2=O)c1 (single isomer, unassigned) [Example 193, 3-((3-fluoro-5-methoxyphenyl)amino)-1-(6-methyl-5-(1H-pyrazol-4-yl)pyridin-2-yl)pyrrolidin-2-one] | < 0.01 µM
9 | COc1nc(N2CCC(Nc3cccc(S(=O)(=O)N4CCOCC4)c3)C2=O)ccc1-c1cn[nH]c1 (racemic) [Example 264, 1-(6-methoxy-5-(1H-pyrazol-4-yl)pyridin-2-yl)-3-((3-(morpholinosulfonyl)phenyl)amino)pyrrolidin-2-one] | 0.01 to 0.1 µM
10 | O=C1[C@H](Nc2ccc3c(c2)CS(=O)(=O)C3)CCN1c1ccc(-c2cn[nH]c2)cc1 [Example 392, (R)-1-(4-(1H-pyrazol-4-yl)phenyl)-3-((2,2-dioxido-1,3-dihydrobenzo[c]thiophen-5-yl)amino)pyrrolidin-2-one] | 0.1 to 2.2 µM
11 | COc1cc(NC2CCN(c3ccc(-c4cn[nH]c4)cc3)C2=O)cc(OC)c1 (single isomer, unassigned) [Example 21, 1-(4-(1H-pyrazol-4-yl)phenyl)-3-((3,5-dimethoxyphenyl)amino)pyrrolidin-2-one] | 0.1 to 2.2 µM
12 | COc1cccc(NC2CCN(c3ccc(-c4cn[nH]c4)c(C4CC4)c3)C2=O)c1 (single isomer, unassigned) [Example 363, 1-(3-cyclopropyl-4-(1H-pyrazol-4-yl)phenyl)-3-((3-methoxyphenyl)amino) pyrrolidin-2-one] | 0.01 to 0.1 µM
13 | COc1cc(NC2CCN(c3ccc(-c4cn[nH]c4)c(F)c3F)C2=O)ccc1F (single isomer, unassigned) [Example 307, 1-(2,3-difluoro-4-(1H-pyrazol-4-yl)phenyl)-3-((4-fluoro-3-methoxyphenyl)amino)pyrrolidin-2-one] | 0.01 to 0.1 µM
14 | CNc1nc(N2CCC(Nc3cc(F)cc(OC)c3)C2=O)ccc1-c1cn[nH]c1 (single isomer, unassigned) [Example 252, 3-((3-fluoro-5-methoxyphenyl)amino)-1-(6-(methylamino)-5-(1H-pyrazol-4-yl)pyridin-2-yl)pyrrolidin-2-one] | < 0.01 µM
15 | COc1c(F)cccc1NC1CCN(c2ccc(-c3cn[nH]c3)c(F)c2)C1=O (single isomer, unassigned) [Example 336, 3-((3-fluoro-2-methoxyphenyl)amino)-1-(3-fluoro-4-(1H-pyrazol-4-yl)phenyl) pyrrolidin-2-one] | < 0.01 µM
16 | CC(=O)Nc1cccc(NC2CCN(c3ccc(-c4cn[nH]c4)cc3)C2=O)c1 (stereo not shown) [Example 391, N-(3-((1-(4-(1H-pyrazol-4-yl)phenyl)-2-oxopyrrolidin-3-yl)amino)phenyl)acetamide] | 0.01 to 0.1 µM
17 | CCc1cc(N2CCC(Nc3cccc(OC)c3)C2=O)ncc1-c1cn[nH]c1 (single isomer, unassigned) [Example 203, 1-(4-ethyl-5-(1H-pyrazol-4-yl)pyridin-2-yl)-3-((3-methoxyphenyl)amino) pyrrolidin-2-one] | 0.1 to 2.2 µM
18 | COc1c(F)cccc1NC1CCN(c2ccc(-c3cn[nH]c3)cn2)C1=O (single isomer, unassigned) [Example 90, 1-(5-(1H-pyrazol-4-yl)pyridin-2-yl)-3-((3-fluoro-2-methoxyphenyl)amino)pyrrolidin-2-one] | 0.1 to 2.2 µM
19 | Cc1cccc(OC2CCN(c3ccc(-c4cn[nH]c4)cc3)C2=O)c1 (stereo not shown) [Example 109, 1-(4-(1H-pyrazol-4-yl)phenyl)-3-(m-tolyloxy)pyrrolidin-2-one] | 0.1 to 2.2 µM
20 | CCOc1cc(N2CCC(Nc3cc(F)cc(OC)c3)C2=O)ccc1-c1cn[nH]c1 (single isomer, unassigned) [Example 36, 1-(3-ethoxy-4-(1H-pyrazol-4-yl)phenyl)-3-((3-fluoro-5-methoxyphenyl)amino)pyrrolidin-2-one] | < 0.01 µM
21 | CCc1cc(N2CCC(Nc3cccc(OC)c3)C2=O)ccc1-c1cn[nH]c1 (single isomer, unassigned) [Example 243, 1-(3-ethyl-4-(1H-pyrazol-4-yl)phenyl)-3-((3-methoxyphenyl)amino)pyrrolidin-2-one] | 0.01 to 0.1 µM
22 | COc1cc(NC2CCN(c3ccc(-c4cn[nH]c4)c(C(F)F)c3)C2=O)ccc1F (single isomer, unassigned) [Example 180, 1-(3-(difluoromethyl)-4-(1H-pyrazol-4-yl)phenyl)-3-((4-fluoro-3-methoxyphenyl)amino)pyrrolidin-2-one] | 0.1 to 2.2 µM
23 | O=C1C(Nc2cccc(OC(F)F)c2)CCN1c1ccc(-c2cn[nH]c2)cc1 (single isomer, unassigned) [Example 231, 1-(4-(1H-pyrazol-4-yl)phenyl)-3-((3-(difluoromethoxy)phenyl)amino) pyrrolidin-2-one] | 0.01 to 0.1 µM
24 | CCOc1cccc(NC2CCN(c3ccc(-c4cn[nH]c4)c(OC)c3)C2=O)c1 (single isomer, unassigned) [Example 249, 3-((3-ethoxyphenyl)amino)-1-(3-methoxy-4-(1H-pyrazol-4-yl)phenyl)pyrrolidin-2-one] | 0.01 to 0.1 µM
25 | COc1nc(N2CCC(Nc3ccc(F)c(OCC4CC4)c3)C2=O)ccc1-c1cn[nH]c1 (single isomer, unassigned) [Example 217, 3-((3-(cyclopropylmethoxy)-4-fluorophenyl)amino)-1-(6-methoxy-5-(1H-pyrazol-4-yl)pyridin-2-yl)pyrrolidin-2-one] | 0.01 to 0.1 µM
